Experimental data taken from paper PMC12297039, “Design, Synthesis, and Evaluation of Cytotoxic Effects of Functional Fatty Acid Derivatives as Potential Antineoplastic Agents for Breast Cancer” (Iranian Journal of Pharmaceutical Research : IJPR, 2025).
Like-named read-outs stand apart in the source and are kept apart here.

Legend:
MCF-7 cells [1] = assay: MTT cytotoxicity assay on breast adenocarcinoma (MCF-7) cells; type: cell-based, human; settings: for EC50: read-out: MCF-7 EC50 (μM) ± SE; for Selectivity Index (SI), MCF-7: ratio of EC50 against fibroblasts to EC50 against MCF-7 cells
Description: (§1) The cytotoxic effects of DHA and LA derivatives against the breast cancer cell line (MCF-7) were assessed, with results compared to human dermal fibroblasts (HDFs) as a normal cell line. Both cell lines were provided by the Pasteur Institute of Iran (IPI). The cells were cultured in RPMI medium containing 10% fetal bovine serum (FBS) and 1% antibiotic solution (comprising 10,000 units of penicillin and 10 mg streptomycin in 0.9% NaCl). The cultures were incubated at 37°C with 5% CO2.
(§2) The MTT assay was used as a standard method for evaluating the inhibitory effect of compounds. This colorimetric assay is based on the conversion of yellow MTT (3-[4,5-dimethylthiazol-2-yl]-2,5-diphenyltetrazolium bromide) to purple formazan crystals via enzymatic reduction by NAD(P)H-dependent oxidoreductase enzymes in metabolically active cells ([35]). According to a previously reported method, after 24 hours of incubation of cells (15,000 cells per well), six different concentrations of D1-D8 (6.25 to 200 μM) and L1-L8 (3.125 to 100 μM) were added to the wells, with each concentration performed in triplicate. After 48 hours of incubation, the culture medium was completely removed from the wells. MTT solution, prepared at a concentration of 0.5 mg/mL in phosphate-buffered saline (PBS), was added (100 µL per well) and incubated for 4 hours to allow metabolically active cells to reduce the MTT to insoluble formazan crystals. Subsequently, 100 µL of solubilizing solvent containing 16% sodium dodecyl sulfate (SDS) was added to each well, followed by an additional 2 hours of incubation ([36]). Cell viability was determined using a Cell Imaging Multi-Mode Microplate Reader (Biotek, Cytation 3, USA), measuring absorbance at 570 nm ([37], [38]).

[2] = system: human dermal fibroblasts (HDFs); assay: MTT cytotoxicity assay on normal human dermal fibroblasts (HDFs); type: cell-based; settings: read-out: HDF EC50 (μM) ± SE
Description: as §1, §2

MCF-7 cells [3] = assay: Annexin V-FITC/PI flow cytometry, apoptosis and necrosis; type: cell-based, human; settings: MCF-7, annexin V-FITC/PI staining, ½x, x, 2x EC50
Description: Apoptosis and necrosis were measured using a dead cell apoptosis kit with annexin V-FITC and propidium iodide (PI) (ApoFlowExFITC, Exbio, Czech Republic) according to the manufacturer’s protocol. The MCF-7 cells were cultured as described in the cell culture section (section 3.3.1). […] Cells were collected through trypsinization, rinsed twice with PBS, and then resuspended in 500 μL of binding buffer. The cell suspensions were subsequently incubated with 5 μL of annexin V-FITC and 5 μL of PI for 10 minutes at room temperature in a dark environment. The cells were then assessed immediately using flow cytometry, and the data were analyzed using FlowJo version 7.6.5 (Tree Star, Inc., Ashland, USA).
A distinguishing characteristic of cells undergoing apoptosis is the translocation of phosphatidylserine from the inner to the outer layers of the plasma membrane, which can be identified by annexin V in this assay. The PI identifies necrotic cells with compromised plasma membranes ([39]-[44]).

MCF-7 breast cancer cell = system: MCF-7 breast cancer cell; parameters: method as in PMID 31652764; settings: MCF-7, MTT assay, 150 μM DHA; cited from earlier work
[4] = Homo sapiens, MCF7, MTT, 48 h incubation, MCF-7
[5] = Fibroblast, MTT, 48 h incubation, normal human dermal fibroblasts

Compound	EC50 (MCF-7 cells [1]; [4])	EC50 [2, 5]	also measured
CCCCC/C=C\C/C=C\CCCCCCCC(=O)N(CCO)CCO [Compound L2, (9Z,12Z)-N,N-bis(2-hydroxyethyl) octadeca-9,12-dienamide]	≥ 100 µM	–	–
N.N.[Cl][Pt][Cl] [cisplatin, reference compound]	–	–	EC50 (MCF-7 cells [1]; MTT, 48 h incubation, MCF-7): 0.85 µM; Selectivity Index (SI), MCF-7 (MCF-7 cells [1]): 1.18
CC/C=C\C/C=C\C/C=C\C/C=C\C/C=C\C/C=C\CCC(=O)NCC(O)CO (stereo not shown) [Compound D7, (4Z,7Z,10Z,13Z,16Z,19Z)-N-(2,3-dihydroxypropyl) docosa-4,7,10,13,16,19-hexaenamide]	98.6 ± 1.19 µM	> 100 µM	–
CCCCC/C=C\C/C=C\CCCCCCCC(=O)NCC(O)CO (stereo not shown) [Compound L7, (9Z,12Z)-N-(2,3-dihydroxypropyl) octadeca-9,12-dienamide]	19.2 ± 2.93 µM	64.8 ± 5.72 µM	Selectivity Index (SI), MCF-7 (MCF-7 cells [1]): 3.37; mode of cell death (MCF-7 cells [3]): predominantly induced apoptosis rather than necrosis
CC/C=C\C/C=C\C/C=C\C/C=C\C/C=C\C/C=C\CCC(=O)N(CCO)CCO [Compound D2, (4Z,7Z,10Z,13Z,16Z,19Z)-N,N-bis(2-hydroxyethyl)docosa-4,7,10,13,16,19-hexaenamide]	≥ 100 µM	> 100 µM	–
CC/C=C\C/C=C\C/C=C\C/C=C\C/C=C\C/C=C\CCC(=O)NCCO [Compound D1, (4Z,7Z,10Z,13Z,16Z,19Z)-N-(2-hydroxyethyl) docosa-4,7,10,13,16,19-hexaenamide]	–	–	EC50 (MCF-7 cells [1]; Homo sapiens, MCF7, 48 h): ≥ 100 µM; EC50 ([2]; Homo sapiens, Fibroblast, 48 h): ≥ 100 µM
CC/C=C\C/C=C\C/C=C\C/C=C\C/C=C\C/C=C\CCC(=O)N1CCN(C)CC1 [Compound D6, (4Z,7Z,10Z,13Z,16Z,19Z)-1-(4-methylpiperazin-1-yl) docosa-4,7,10,13,16,19-hexaen-1-one]	≥ 100 µM	–	–
CC/C=C\C/C=C\C/C=C\C/C=C\C/C=C\C/C=C\CCC(=O)Nc1ccc(O)cc1 [Compound D4, (4Z,7Z,10Z,13Z,16Z,19Z)-N-(4-hydroxyphenyl)docosa-4,7,10,13,16,19-hexaenamide]	74.3 ± 1.41 µM	> 100 µM	–
CCCCC/C=C\C/C=C\CCCCCCCC(=O)NCCO [Compound L1, (9Z,12Z)-N-(2-hydroxyethyl) octadeca-9,12-dienamide]	≥ 100 µM	–	–
CC/C=C\C/C=C\C/C=C\C/C=C\C/C=C\C/C=C\CCC(=O)NCCc1ccccc1 [Compound D5, (4Z,7Z,10Z,13Z,16Z,19Z)-N-phenethyldocosa-4,7,10,13,16,19-hexaenamide]	≥ 100 µM	–	–
CCCCC/C=C\C/C=C\CCCCCCCC(=O)Nc1ccc(O)cc1 [Compound L4, (9Z,12Z)-N-(4-hydroxyphenyl) octadeca-9,12-dienamide]	52.4 ± 6.79 µM	≥ 100 µM	Selectivity Index (SI), MCF-7 (MCF-7 cells [1]): 3.53
CC/C=C\C/C=C\C/C=C\C/C=C\C/C=C\C/C=C\CCC(=O)O [DHA, docosahexaenoic acid]	–	–	cell viability (MCF-7 breast cancer cell): significantly reduced
4-((4Z,7Z,10Z,13Z,16Z,19Z)-docosa-4,7,10,13,16,19-hexaen-1-yl)morpholine [Compound D3]	–	–	EC50 (MCF-7 cells [1]; MTT, 48 h incubation, MCF-7): 16 ± 2.89 µM; EC50 ([2]; MTT, 48 h incubation, normal human dermal fibroblasts): > 100 µM; mode of cell death (MCF-7 cells [3]): predominantly induced apoptosis rather than necrosis
CCCCC/C=C\C/C=C\CCCCCCCC(=O)N1CCOCC1 [Compound L3, (9Z,12Z)-1-morpholinooctadeca-9,12-dien-1-one]	24.6 ± 1.81 µM	≥ 100 µM	Selectivity Index (SI), MCF-7 (MCF-7 cells [1]): 6.88; mode of cell death (MCF-7 cells [3]): predominantly induced apoptosis rather than necrosis
CC/C=C\C/C=C\C/C=C\C/C=C\C/C=C\C/C=C\CCC(=O)NCCN [Compound D8, (4Z,7Z,10Z,13Z,16Z,19Z)-N-(2-aminoethyl) docosa-4,7,10,13,16,19-hexaenamide]	86 ± 5.41 µM	> 100 µM	–
